Measured values taken from patent publication US20200345795A1, “MODULATION OF INTESTINAL MICROBIOTA IN PRE-DIABETES AND TYPE 2 DIABETES” (Medlab IP Pty Ltd, priority 2017, published 2020).

System: intestinal microbiota
Assay: Faecal microbial profile (16S rRNA gene sequencing, MALDI-TOF) in randomised placebo-controlled trial
Type: in vivo, human
Protocol: The study described herein was a pilot, single site, randomised, double blind, placebo-controlled trial. Ethical approval was granted by the Sydney Local Health District Human Research Ethics Committee, RPA Hospital, Sydney, Australia. The study was carried out according to the Declaration of Helsinki, the National Health and Medical Research Council National Statement on Ethical Conduct in Research Involving Humans and the Notes for Guidance on Good Clinical Practice as adopted by the Australian Therapeutic Goods Administration and the International Conference on Harmonisation Good Clinical Practise guidelines. Written informed consent was obtained from participants before enrolment.
The active product administered was a capsule containing 5×10^10 colony forming units (cfu) of a multi-strain probiotic combination of Lactobacillus plantarum, Lactobacillus bulgaricus, Lactobacillus gasseri, Bifidobacterum breve, Bifidobacterium animalis subsp. lactis, Bifidobacterium bifidum, Streptococcus thermophilus and Saccharomyces boulardii. The placebo was a capsule containing 50 mg maltodextrin. The probiotic and placebo capsules were opaque white in colour and looked and smelled identical. […]
Faecal bacterial profiles were determined using the Ion S5 next-generation sequencing platform (Thermo Fisher) and faecal yeasts were identified by matrix-assisted laser desorption ionization time-of-flight mass spectrometry (MALDI-TOF). […] After extraction, DNA was quantified in a Qubit 2.0 Fluorometer (Invitrogen, Thermo Fisher). […] PCR products were quantified and their quality was evaluated by electrophoretic fractionation in 2% agarose gels (E-Gel, EX Agarose Gel, Thermo Fisher). […]

## CN(C)C(=N)NC(=N)N [metformin, N,N-dimethylimidodicarbonimidic diamide]
Participants taking vs not taking metformin, p=0.002 (species) and 0.036 (genera)
  intestinal microbial community (beta diversity) at species and genera level: differed from those not taking metformin
Participants taking vs not taking metformin, p=0.56
  effect on intestinal microbiota at the family level: no effect
Those taking metformin in the placebo group, in contrast to the probiotic group
  relative abundance of Akkermansia municiphila: lower relative abundance
